Laboratory results: paper PMC10136361 (Biomolecules, 2023)

How the values were obtained:
MmGSTP1-1 [1] = target: T1, MmGSTP1-1 (Mus musculus, UniProt P19157); test: CDNB-GSH enzyme assay, single concentration […]; type: biochemical; settings: read-out: % inhibition at 25 μM
T1 construct: gene Gstp1; recombinant MmGSTP1-1 (GenBank BC061109.1), expressed in E. coli

MmGSTP1-1 [2] = target: T1, MmGSTP1-1; test: CDNB-GSH enzyme assay at […] nm, inhibition kinetics (KiE, GSH varied); IC50 […]; type: biochemical
MmGSTP1-1 [3] = target: T1, MmGSTP1-1; test: X-ray co-crystal structure, […] Å; type: binding
MmGSTP1-1 [4] = target: T1, MmGSTP1-1; test: steady-state kinetics (Km); type: biochemical

T1 sequence (P19157 2-210): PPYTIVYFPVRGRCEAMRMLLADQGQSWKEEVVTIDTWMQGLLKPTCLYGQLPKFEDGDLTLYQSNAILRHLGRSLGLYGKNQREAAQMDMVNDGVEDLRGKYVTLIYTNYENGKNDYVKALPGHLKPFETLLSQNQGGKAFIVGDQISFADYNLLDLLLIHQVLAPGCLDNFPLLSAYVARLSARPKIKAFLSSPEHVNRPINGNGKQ

SMILES	inhibition at 25 µM (MmGSTP1-1 [1]) [%]	other results
CC1(C)[C@H](C(=O)O[C@H](C#N)c2cccc(Oc3ccccc3)c2)[C@@H]1C=C(Br)Br [deltamethrin]	82	
CC(C)NC(=O)N1CC(=O)N(c2cc(Cl)cc(Cl)c2)C1=O [iprodione, 3-(3,5-dichlorophenyl)-2,4-dioxo-N-propan-2-ylimidazolidine-1-carboxamide]		Ki (MmGSTP1-1 [2]): 5.2 ± 0.1 µM
Cc1cc(C)c(C2=C(OC(=O)CC(C)(C)C)C3(CCCC3)OC2=O)c(C)c1 [spiromesifen]	70	
N[C@@H](CCC(=O)N[C@@H](CSCc1ccc([N+](=O)[O-])cc1)C(=O)NCC(=O)O)C(=O)O [S-(p-nitrobenzyl)glutathione]		X-ray co-crystal structure, 1.28 Å (MmGSTP1-1 [3]): A molecule of Nb-GSH was found bound in the active site of each molecule of the dimer
O=[N+]([O-])c1ccc(Cl)c([N+](=O)[O-])c1 [1-chloro-2,4-dinitrobenzene]		Km (MmGSTP1-1 [4]): 800 ± 40 µM
CSC1=N[C@@](C)(c2ccccc2)C(=O)N1Nc1ccccc1 [fenamidone]	53	
O=S1OC[C@@H]2[C@H](CO1)[C@@]1(Cl)C(Cl)=C(Cl)[C@]2(Cl)C1(Cl)Cl (stereo partly drawn) [α-endosulfan]	58	
